From patent US20070078620A1, “Methods and kits for delivering pharmaceutical agents into the coronary vascular adventitia” (Mercator MedSystems Inc., priority 2002, published 2007)

How the values were obtained:
[1] = two injections of 0.5 mL 5% silver nitrate into each iliac artery; hematoxylin-eosin stained sections
Source text: The animal was sacrificed according to approved protocol following the last injection. The arteries were removed and placed in 10% formalin without perfusion. 2 mm segments were embedded in paraffin, sectioned, and hematoxylin-eosin stained.

[2] = Distribution of a lipophilic compound (tacrolimus) after periadventitial delivery to coronary arteries, LC/MS of tissue; format: in vivo, swine; details: for concentration at 48 h: swine, in vivo
Experimental: Distribution of a lipophilic compound (tacrolimus): Eight swine underwent angiography. […] The two remaining arteries served as untreated controls. An untreated heart was used as a negative control. At 48 hours arteries were dissected from the musculature and perivascular fat, cut into 5 mm sections and analyzed by Liquid Chromatography/Mass Spectrometry against tacrolimus calibration standards containing homogenized untreated porcine heart tissue.

SMILES	staining: site of delivery and diffusion [1]	persistence of drug in the artery ([2]; 48 hours after injection, full length of the artery)	subjects with distribution to the entire coronary tree ([2]; periadventitial delivery, 48 hours)	concentration at 48 h ([2]; mean concentration in the remaining segments) [ng/g]	concentration at 48 h ([2]; mean concentration within 1 cm of known injection sites) [ng/g]	concentration at 48 h ([2]; mean level of tacrolimus in confirmed injected arteries) [ng/g]	concentration at 48 h ([2]; mean level of tacrolimus in uninjected arteries of treated hearts) [ng/g]
O=[N+]([O-])[O-].[Ag+] [Silver Nitrate]	delivery outside the external elastic lamina of the vessels and diffusion around the circumference	–	–	–	–	–	–
C=CC[C@@H]1/C=C(\C)C[C@H](C)C[C@H](OC)[C@H]2O[C@@](O)(C(=O)C(=O)N3CCCC[C@H]3C(=O)O[C@H](/C(C)=C/[C@@H]3CC[C@@H](O)[C@H](OC)C3)[C@H](C)[C@@H](O)CC1=O)[C@H](C)C[C@@H]2OC [tacrolimus]	–	detectable	8/8	26	64	55	27
